Reference: ChEMBL document CHEMBL3885881, “DrugMatrix”

Species on record: Rattus norvegicus
Assay: DrugMatrix - Regimen: Daily Repeat
Format: toxicity, organism-based, Sprague-Dawley
Design: regimen Daily Repeat, gender Male, age 6-8 weeks
Details: in vivo, po, route oral GAVAGE, vehicle .5 % CMC; for BASOPHIL / EOSINOPHIL / ERYTHROCYTE COUNT / HEMATOCRIT / HEMOGLOBIN / LEUKOCYTE COUNT / LYMPHOCYTE / MEAN CORPUSCULAR HEMOGLOBIN / MEAN CORPUSCULAR HEMOGLOBIN CONCENTRATION / MEAN CORPUSCULAR VOLUME / MONOCYTE / NEUTROPHIL / PLATELET COUNT: tissue Blood; for ALANINE AMINOTRANSFERASE / ALBUMIN / ALKALINE PHOSPHATASE / ASPARTATE AMINOTRANSFERASE / BLOOD UREA NITROGEN / CHLORIDE / CHOLESTEROL / CREATINE PHOSPHOKINASE / CREATININE / GLUCOSE / PHOSPHORUS / POTASSIUM / SODIUM / TOTAL PROTEIN: tissue Plasma
[1] = 0 mg/kg, 72 h, dose level Control, time 3 day
[2] = 0 mg/kg, 120 h, dose level Control, time 5 day
[3] = 28 mg/kg, 72 h, dose level Low, time 3 day
[4] = 28 mg/kg, 120 h, dose level Low, time 5 day
[5] = 2000 mg/kg, 72 h, dose level High, time 3 day
[6] = 2000 mg/kg, 120 h, dose level High, time 5 day

CCN1CCN(c2cc3c(cc2F)c(=O)c(C(=O)O)cn3C2CC2)CC1 [ENROFLOXACIN]
BASOPHIL [1]: 0%
EOSINOPHIL [1]: 0.4%
ERYTHROCYTE COUNT [1]: 6.43 x10E6/uL
HEMATOCRIT [1]: 37.36%
HEMOGLOBIN [1]: 13.98 G/DL
LEUKOCYTE COUNT [1]: 13 x10E3/uL
LYMPHOCYTE [1]: 81.4%
MEAN CORPUSCULAR HEMOGLOBIN [1]: 21.9 pg
MEAN CORPUSCULAR HEMOGLOBIN CONCENTRATION [1]: 37.4 G/DL
MEAN CORPUSCULAR VOLUME [1]: 58.52 fL
MONOCYTE [1]: 0.4%
NEUTROPHIL [1]: 18%
PLATELET COUNT [1]: 1386 x10E3/uL
ALANINE AMINOTRANSFERASE [1]: 39.33 u/L
ALBUMIN [1]: 3.57 G/DL
ALKALINE PHOSPHATASE [1]: 283.83 u/L
ASPARTATE AMINOTRANSFERASE [1]: 69.5 u/L
BLOOD UREA NITROGEN [1]: 14.83 mg/dL
CHLORIDE [1]: 107.33 MEQ/L
CHOLESTEROL [1]: 75.17 mg/dL
CREATINE PHOSPHOKINASE [1]: 107.67 u/L
CREATININE [1]: 0.48 mg/dL
GLUCOSE [1]: 172.5 mg/dL
PHOSPHORUS [1]: 10.48 mg/dL
POTASSIUM [1]: 6.9 MEQ/L
SODIUM [1]: 152.33 MEQ/L
TOTAL PROTEIN [1]: 5.9 G/DL
BASOPHIL [2]: 0%
EOSINOPHIL [2]: 0.4%
ERYTHROCYTE COUNT [2]: 6.96 x10E6/uL
HEMATOCRIT [2]: 41.12%
HEMOGLOBIN [2]: 15.24 G/DL
LEUKOCYTE COUNT [2]: 11.06 x10E3/uL
LYMPHOCYTE [2]: 88.6%
MEAN CORPUSCULAR HEMOGLOBIN [2]: 21.96 pg
MEAN CORPUSCULAR HEMOGLOBIN CONCENTRATION [2]: 37.1 G/DL
MEAN CORPUSCULAR VOLUME [2]: 59.12 fL
MONOCYTE [2]: 0.2%
NEUTROPHIL [2]: 10.8%
PLATELET COUNT [2]: 1155.8 x10E3/uL
ALANINE AMINOTRANSFERASE [2]: 36.33 u/L
ALBUMIN [2]: 3.72 G/DL
ALKALINE PHOSPHATASE [2]: 340.33 u/L
ASPARTATE AMINOTRANSFERASE [2]: 68.33 u/L
BLOOD UREA NITROGEN [2]: 15 mg/dL
CHLORIDE [2]: 108.17 MEQ/L
CHOLESTEROL [2]: 74.67 mg/dL
CREATINE PHOSPHOKINASE [2]: 110.67 u/L
CREATININE [2]: 0.47 mg/dL
GLUCOSE [2]: 171.33 mg/dL
PHOSPHORUS [2]: 10.05 mg/dL
POTASSIUM [2]: 6.7 MEQ/L
SODIUM [2]: 155.5 MEQ/L
TOTAL PROTEIN [2]: 6.33 G/DL
BASOPHIL [3]: 0%
EOSINOPHIL [3]: 0.33%
ERYTHROCYTE COUNT [3]: 6.63 x10E6/uL
HEMATOCRIT [3]: 40.9%
HEMOGLOBIN [3]: 15.27 G/DL
LEUKOCYTE COUNT [3]: 15.3 x10E3/uL
LYMPHOCYTE [3]: 87.67%
MEAN CORPUSCULAR HEMOGLOBIN [3]: 23.03 pg
MEAN CORPUSCULAR HEMOGLOBIN CONCENTRATION [3]: 37.33 G/DL
MEAN CORPUSCULAR VOLUME [3]: 61.73 fL
MONOCYTE [3]: 0.33%
NEUTROPHIL [3]: 11.67%
PLATELET COUNT [3]: 1320.33 x10E3/uL
ALANINE AMINOTRANSFERASE [3]: 35.67 u/L
ALBUMIN [3]: 3.53 G/DL
ALKALINE PHOSPHATASE [3]: 256 u/L
ASPARTATE AMINOTRANSFERASE [3]: 57 u/L
BLOOD UREA NITROGEN [3]: 14 mg/dL
CHLORIDE [3]: 106.67 MEQ/L
CHOLESTEROL [3]: 68.67 mg/dL
CREATINE PHOSPHOKINASE [3]: 123 u/L
CREATININE [3]: 0.5 mg/dL
GLUCOSE [3]: 170 mg/dL
PHOSPHORUS [3]: 11.27 mg/dL
POTASSIUM [3]: 6.83 MEQ/L
SODIUM [3]: 151.67 MEQ/L
TOTAL PROTEIN [3]: 5.93 G/DL
BASOPHIL [4]: 0%
EOSINOPHIL [4]: 0.67%
ERYTHROCYTE COUNT [4]: 7.38 x10E6/uL
HEMATOCRIT [4]: 43.67%
HEMOGLOBIN [4]: 15.73 G/DL
LEUKOCYTE COUNT [4]: 15.77 x10E3/uL
LYMPHOCYTE [4]: 91%
MEAN CORPUSCULAR HEMOGLOBIN [4]: 21.23 pg
MEAN CORPUSCULAR HEMOGLOBIN CONCENTRATION [4]: 35.97 G/DL
MEAN CORPUSCULAR VOLUME [4]: 58.97 fL
MONOCYTE [4]: 0%
NEUTROPHIL [4]: 8.33%
PLATELET COUNT [4]: 1186 x10E3/uL
ALANINE AMINOTRANSFERASE [4]: 39 u/L
ALBUMIN [4]: 3.77 G/DL
ALKALINE PHOSPHATASE [4]: 351 u/L
ASPARTATE AMINOTRANSFERASE [4]: 67.67 u/L
BLOOD UREA NITROGEN [4]: 13.67 mg/dL
CHLORIDE [4]: 115 MEQ/L
CHOLESTEROL [4]: 67.33 mg/dL
CREATINE PHOSPHOKINASE [4]: 110 u/L
CREATININE [4]: 0.6 mg/dL
GLUCOSE [4]: 194.33 mg/dL
PHOSPHORUS [4]: 10 mg/dL
POTASSIUM [4]: 6.77 MEQ/L
SODIUM [4]: 161.67 MEQ/L
TOTAL PROTEIN [4]: 6.37 G/DL
BASOPHIL [5]: 0%
EOSINOPHIL [5]: 0%
ERYTHROCYTE COUNT [5]: 6.71 x10E6/uL
HEMATOCRIT [5]: 40.2%
HEMOGLOBIN [5]: 15 G/DL
LEUKOCYTE COUNT [5]: 9.93 x10E3/uL
LYMPHOCYTE [5]: 94%
MEAN CORPUSCULAR HEMOGLOBIN [5]: 22.37 pg
MEAN CORPUSCULAR HEMOGLOBIN CONCENTRATION [5]: 37.33 G/DL
MEAN CORPUSCULAR VOLUME [5]: 59.87 fL
MONOCYTE [5]: 0.33%
NEUTROPHIL [5]: 5.67%
PLATELET COUNT [5]: 1314.33 x10E3/uL
ALANINE AMINOTRANSFERASE [5]: 34 u/L
ALBUMIN [5]: 3.4 G/DL
ALKALINE PHOSPHATASE [5]: 233.33 u/L
ASPARTATE AMINOTRANSFERASE [5]: 47.33 u/L
BLOOD UREA NITROGEN [5]: 13.33 mg/dL
CHLORIDE [5]: 107.67 MEQ/L
CHOLESTEROL [5]: 72.67 mg/dL
CREATINE PHOSPHOKINASE [5]: 92.33 u/L
CREATININE [5]: 0.67 mg/dL
GLUCOSE [5]: 183.33 mg/dL
PHOSPHORUS [5]: 11.5 mg/dL
POTASSIUM [5]: 7.2 MEQ/L
SODIUM [5]: 152.67 MEQ/L
TOTAL PROTEIN [5]: 5.53 G/DL
BASOPHIL [6]: 0%
EOSINOPHIL [6]: 0%
ERYTHROCYTE COUNT [6]: 7.19 x10E6/uL
HEMATOCRIT [6]: 42.1%
HEMOGLOBIN [6]: 14.8 G/DL
LEUKOCYTE COUNT [6]: 14.2 x10E3/uL
LYMPHOCYTE [6]: 97.67%
MEAN CORPUSCULAR HEMOGLOBIN [6]: 20.57 pg
MEAN CORPUSCULAR HEMOGLOBIN CONCENTRATION [6]: 35.17 G/DL
MEAN CORPUSCULAR VOLUME [6]: 58.63 fL
MONOCYTE [6]: 0%
NEUTROPHIL [6]: 2.33%
PLATELET COUNT [6]: 1312.33 x10E3/uL
ALANINE AMINOTRANSFERASE [6]: 39 u/L
ALBUMIN [6]: 3.43 G/DL
ALKALINE PHOSPHATASE [6]: 266 u/L
ASPARTATE AMINOTRANSFERASE [6]: 50 u/L
BLOOD UREA NITROGEN [6]: 11.67 mg/dL
CHLORIDE [6]: 104 MEQ/L
CHOLESTEROL [6]: 56 mg/dL
CREATINE PHOSPHOKINASE [6]: 95.33 u/L
CREATININE [6]: 0.6 mg/dL
GLUCOSE [6]: 152.67 mg/dL
PHOSPHORUS [6]: 11.4 mg/dL
POTASSIUM [6]: 6.03 MEQ/L
SODIUM [6]: 150.67 MEQ/L
TOTAL PROTEIN [6]: 5.53 G/DL
